The molecules below were run against PAFR (Homo sapiens, UniProt P25105) (assay: PAF Binding Assay (PAFR binding)).
Sequence of PAFR (P25105 whole entry): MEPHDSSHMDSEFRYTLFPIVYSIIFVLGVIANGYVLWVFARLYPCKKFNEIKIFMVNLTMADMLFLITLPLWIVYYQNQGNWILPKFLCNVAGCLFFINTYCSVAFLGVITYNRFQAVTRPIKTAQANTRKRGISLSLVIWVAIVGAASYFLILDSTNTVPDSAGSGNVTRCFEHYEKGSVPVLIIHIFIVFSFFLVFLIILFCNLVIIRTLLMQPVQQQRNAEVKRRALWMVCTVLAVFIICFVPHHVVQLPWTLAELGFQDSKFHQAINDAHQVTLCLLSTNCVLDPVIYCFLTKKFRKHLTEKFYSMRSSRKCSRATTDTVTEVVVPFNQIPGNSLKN

SMILES	IC50 [nM]
CCc1cc(-c2ccc(OC(F)F)cc2)ccc1S(=O)(=O)N[C@H]1CCC[C@@H](n2cnnc2)C1 [Compound 2Ay, 4′-(difluoromethoxy)-3-ethyl-N-[(1S,3R)-3-(4H-1,2,4-triazol-4-yl)cyclohexyl]biphenyl-4-sulfonamide]	2.5
Cc1nncn1[C@H]1C[C@@H](NS(=O)(=O)c2cc(-c3ccn[nH]3)cc(C(F)(F)F)c2)CC(F)(F)C1 [Compound 9Ae]	18
O=S(=O)(N[C@H]1CCC[C@@H](n2cnnc2C2CC2)C1)c1ccc(-c2noc(C3CC3)n2)cc1OC(F)(F)F [Compound 2Bb, 4-(5-cyclopropyl-1,2,4-oxadiazol-3-yl)-N-[(1S,3R)-3-(3-cycloropyl-4H-1,2,4-triazol-4-yl)cyclohexyl]-2-(trifluoromethoxy)benzenesulfonamide]	4.3
O=S(=O)(N[C@H]1CCC[C@@H](n2cnnc2)C1)c1ccc(-c2noc(C(F)(F)F)n2)cc1C1CC1 [2 Kb, 2-cyclopropyl-N-[(1S,3R)-3-(4H-1,2,4-triazol-4-yl)cyclohexyl]-4-[5-(trifluoromethyl)-1,2,4-oxadiazol-3-yl]benzenesulfonamide]	16
Cc1nncn1[C@@H]1CCC[C@H](NS(=O)(=O)c2ccc(-n3nccc3C3CC3)cc2)C1 [Compound 2Nr, 4-(5-cyclopropyl-1H-pyrazol-1-yl)-N-[(1S,3R)-3-(3-methyl-4H-1,2,4-triazol-4-yl)cyclohexyl]benzenesulfonamide]	56
CCc1cc(-c2ccc(OC)cc2)ccc1S(=O)(=O)N[C@H]1CCC[C@@H](n2cnnc2)C1 [Compound 2Ap, 3-ethyl-4′-methoxy-N-[(1S,3R)-3-(4H-1,2,4-triazol-4-yl)cyclohexyl]biphenyl-4-sulfonamide]	27
CCc1cc(-c2ccn3nccc3n2)ccc1S(=O)(=O)N[C@H]1CCC[C@@H](n2cnnc2)C1 [Compound 2Aav, 2-ethyl-4-pyrazolo[1,5-a]pyrimidin-5-yl-N-[(1S,3R)-3-(4H-1,2,4-triazol-4-yl)cyclohexyl]benzenesulfonamide]	9.7
O=S(=O)(N[C@H]1CCC[C@@H](n2cnnc2)C1)c1cc(-c2cccs2)cc(C(F)(F)F)c1 [Compound 3Aas, 3-(2-thienyl)-N-[(1S,3R)-3-(4H-1,2,4-triazol-4-yl)cyclohexyl]-5-(trifluoromethyl)benzenesulfonamide]	3.8
Cc1nncn1[C@@H]1CCC[C@H](NS(=O)(=O)c2ccc(-c3ccc(OC(F)(F)F)cc3)cc2F)C1 [Compound 2Jg, 3-fluoro-N-[(1S,3R)-3-(3-methyl-4H-1,2,4-triazol-4-yl)cyclohexyl]-4′-(trifluoromethoxy)biphenyl-4-sulfonamide]	10
O=S(=O)(N[C@H]1CCC[C@@H](n2cnnc2)C1)c1cc(-c2ccc3nc(C(F)(F)F)nn3n2)cc(C(F)(F)F)c1 [Compound 3Aah, N-[(1S,3R)-3-(4H-1,2,4-triazol-4-yl)cyclohexyl]-3-(trifluoromethyl)-5-[2-(trifluoromethyl)[1,2,4]triazolo[1,5-b]pyridazin-6-yl]benzenesulfonamide]	18
O=S(=O)(N[C@H]1CCC[C@@H](n2cnnc2)C1)c1cc(-c2ccccc2)cc(C(F)(F)F)c1 [Compound 3Ae, N-[(1S,3R)-3-(4H-1,2,4-triazol-4-yl)cyclohexyl]-5-(trifluoromethyl)biphenyl-3-sulfonamide]	5.9
CCc1cc(-c2cccc3cccnc23)ccc1S(=O)(=O)N[C@H]1CCC[C@@H](n2cnnc2)C1 [Compound 2Aae, 2-ethyl-4-quinolin-8-yl-N-[(1S,3R)-3-(4H-1,2,4-triazol-4-yl)cyclohexyl]benzenesulfonamide]	4.9
O=S(=O)(N[C@H]1CCC[C@@H](n2cnnc2)C1)c1cc(F)c(-c2ccc(OC(F)(F)F)cc2)cc1F [Compound 2Mo, 2,5-difluoro-N-[(1S,3R)-3-(4H-1,2,4-triazol-4-yl)cyclohexyl]-4′-(trifluoromethoxy)biphenyl-4-sulfonamide]	12
CCc1cc(-c2ccc(OC(C(F)(F)F)C(F)(F)F)cc2)ccc1S(=O)(=O)N[C@H]1CCC[C@@H](n2cnnc2)C1 [Compound 2Aap, 3-ethyl-N-[(1S,3R)-3-(4H-1,2,4-triazol-4-yl)cyclohexyl]-4′-[2,2,2-trifluoro-1-(trifluoromethyl)ethoxy]biphenyl-4-sulfonamide]	1.7
O=S(=O)(N[C@H]1CCC[C@@H](n2cnnc2)C1)c1ccc(Oc2ncc(C(F)(F)F)cc2Cl)cc1 [Compound 2Mab, 4-{[3-chloro-5-(trifluoromethyl)pyridin-2-yl]oxy}-N-[(1S,3R)-3-(4H-1,2,4-triazol-4-yl)cyclohexyl]benzenesulfonamide]	66
O=S(=O)(N[C@H]1CCC[C@@H](n2cnnc2)C1)c1cc(-c2ccc(F)cc2)cc(C(F)(F)F)c1 [Compound 3Ac, 4′-fluoro-N-[(1S,3R)-3-(4H-1,2,4-triazol-4-yl)cyclohexyl]-5-(trifluoromethyl)biphenyl-3-sulfonamide]	6.2
Cc1nncn1[C@@H]1CCC[C@H](NS(=O)(=O)c2ccc(-c3noc(C4CCC4)n3)cc2OC(F)(F)F)C1 [Compound 2Bbg, 4-(5-cyclobutyl-1,2,4-oxadiazol-3-yl)-N-[(1S,3R)-3-(3-methyl-4H-1,2,4-triazol-4-yl)cyclohexyl]-2-(trifluoromethoxy)benzenesulfonamide]	1.5

SMILES	IC50 [nM]
COc1ncccc1-c1cc(OC(F)(F)F)cc(S(=O)(=O)N[C@H]2CCC[C@@H](n3cnnc3)C2)c1 [Compound 3Eb, 3-(2-methoxypyridin-3-yl)-N-[(1S,3R)-3-(4H-1,2,4-triazol-4-yl)cyclohexyl]-5-(trifluoromethoxy)benzenesulfonamide]	13
CCc1cc(-n2cc(C)cn2)ccc1S(=O)(=O)N[C@H]1CCC[C@@H](n2cnnc2)C1 [Compound 6b, 2-ethyl-4-(4-methyl-1H-pyrazol-1-yl)-N-[(1S,3R)-3-(4H-1,2,4-triazol-4-yl)cyclohexyl]benzenesulfonamide]	25
O=S(=O)(N[C@H]1CCC[C@@H](n2cnnc2)C1)c1cc(-c2ccn3nccc3n2)cc(C(F)(F)F)c1 [Compound 3Aak, 3-pyrazolo[1,5-a]pyrimidin-5-yl-N-[(1S,3R)-3-(4H-1,2,4-triazol-4-yl)cyclohexyl]-5-(trifluoromethyl)benzenesulfonamide]	3.6
CCCCOc1ccc(S(=O)(=O)N[C@@H]2C[C@H](n3cnnc3C)CC(F)(F)C2)cc1F [Compound 2Hj, 4-butoxy-N-[(1R,5S)-3,3-difluoro-5-(3-methyl-4H-1,2,4-triazol-4-yl)cyclohexyl]-3-fluorobenzenesulfonamide]	3.6
CCc1cc(-c2ccc(OCC(F)(F)F)nc2)ccc1S(=O)(=O)N[C@H]1CCC[C@@H](n2cnnc2)C1 [Compound 2Aak, 2-ethyl-N-[(1S,3R)-3-(4H-1,2,4-triazol-4-yl)cyclohexyl]-4-[6-(2,2,2-trifluoroethoxy)pyridin-3-yl]benzenesulfonamide]	0.7
CCc1cc(-c2ccc(OC(C)C)cc2)ccc1S(=O)(=O)N[C@H]1CCC[C@@H](n2cnnc2)C1 [Compound 2Aaj, 3-ethyl-4′-isopropoxy-N-[(1S,3R)-3-(4H-1,2,4-triazol-4-yl)cyclohexyl]biphenyl-4-sulfonamide]	0.8
CCc1cc(-c2ccc(OCC(F)(F)F)nn2)cc(S(=O)(=O)N[C@H]2CCC[C@@H](n3cnnc3)C2)c1 [Compound 3Bay, 3-ethyl-N-[(1S,3R)-3-(4H-1,2,4-triazol-4-yl)cyclohexyl]-5-[6-(2,2,2-trifluoroethoxy)pyridazin-3-yl]benzenesulfonamide]	5.7
COc1ccc(S(=O)(=O)N[C@H]2CCC[C@@H](n3cnnc3)C2)cc1OC [Compound 2Mx, 3,4-dimethoxy-N-[(1S,3R)-3-(4H-1,2,4-triazol-4-yl)cyclohexyl]benzenesulfonamide]	600
Cc1cn2nc(-c3cc(C(F)(F)F)cc(S(=O)(=O)N[C@H]4CCC[C@@H](n5cnnc5)C4)c3)ccc2n1 [Compound 3Aai, 3-(2-methylimidazo[1,2-b]pyridazin-6-yl)-N-[(1S,3R)-3-(4H-1,2,4-triazol-4-yl)cyclohexyl]-5-(trifluoromethyl)benzenesulfonamide]	4.1
Cc1nncn1[C@H]1C[C@@H](NS(=O)(=O)c2ccc(-c3ccc(OCC(F)(F)F)nc3)c(F)c2)CC(F)(F)C1 [Compound 2Hf, N-[(1R,5S)-3,3-difluoro-5-(3-methyl-4H-1,2,4-triazol-4-yl)cyclohexyl]-3-fluoro-4-[6-(2,2,2-trifluoroethoxy)pyridin-3-yl]benzenesulfonamide]	0.6
O=S(=O)(N[C@H]1CCC[C@@H](n2cnnc2)C1)c1cc(-c2cccc3ccsc23)cc(C(F)(F)F)c1 [Compound 3Aq, 3-(1-benzothien-7-yl)-N-[(1S,3R)-3-(4H-1,2,4-triazol-4-yl)cyclohexyl]-5-(trifluoromethyl)benzenesulfonamide]	7
CCc1cc(-c2cnc3ccnn3c2)cc(S(=O)(=O)N[C@H]2CCC[C@@H](n3cnnc3)C2)c1 [Compound 3Bax, 3-ethyl-5-pyrazolo[1,5-a]pyrimidin-6-yl-N-[(1S,3R)-3-(4H-1,2,4-triazol-4-yl)cyclohexyl]benzenesulfonamide]	22
O=S(=O)(N[C@H]1CCC[C@@H](n2cnnc2)C1)c1ccc(OC(F)(F)F)cc1 [Compound 2Mu, N-[(1S,3R)-3-(4H-1,2,4-triazol-4-yl)cyclohexyl]-4-(trifluoromethoxy)benzenesulfonamide]	164
O=S(=O)(N[C@H]1CCC[C@@H](n2cnnc2)C1)c1ccc(-c2ccc(OC(F)F)cc2)c(F)c1 [Compound 2Ec, 4′-(difluoromethoxy)-2-fluoro-N-[(1S,3R)-3-(4H-1,2,4-triazol-4-yl)cyclohexyl]biphenyl-4-sulfonamide]	2.6
O=S(=O)(N[C@H]1CCC[C@@H](n2cnnc2)C1)c1ccc(-c2ccc(OC(F)(F)F)cc2)cc1F [Compound 2Ig, 3-fluoro-N-[(1S,3R)-3-(4H-1,2,4-triazol-4-yl)cyclohexyl]-4′-(trifluoromethoxy)biphenyl-4-sulfonamide]	16
CCc1cc(-c2ncns2)ccc1S(=O)(=O)N[C@H]1CCC[C@@H](n2cnnc2)C1 [Compound 2Aaz, 2-ethyl-4-(1,2,4-thiadiazol-5-yl)-N-[(1S,3R)-3-(4H-1,2,4-triazol-4-yl)cyclohexyl]benzenesulfonamide]	390

Reference: patent publication US9029377B2, “Platelet-activating factor receptor antagonists” (Merck Sharp & Dohme Corp., priority 2009, dated 2015)
